From US10314826B2, “Methods of treatment of ischemia-induced angiogenesis and arteriogenesis” (UNIVERSITY OF MARYLAND, BALTIMORE, priority 2014, dated 2019)

Columns and labels:
endothelial cells [1] = details: report of Chavala et al [26]; cited from earlier work
VSMC = details: report of Chavala et al [26]; cited from earlier work
p53 [2] = details: report of Chavala et al [26]; cited from earlier work
endothelial cells [3] = details: report of Chavala et al [26]; cited from earlier work; remark: listed apart in the source
p53 [4] = target: T1, p53 (Mus musculus, UniProt P02340); test: Collateral artery development (arteriogenesis, gracilis artery index) after hindlimb ischemia; format: in vivo; parameters: from tissue; host or cells: live C57Bl/6 p53+/+ mice (hindlimb muscle and arteries); details: p53+/+ mice, vs vehicle
T1 sequence (P02340 whole entry): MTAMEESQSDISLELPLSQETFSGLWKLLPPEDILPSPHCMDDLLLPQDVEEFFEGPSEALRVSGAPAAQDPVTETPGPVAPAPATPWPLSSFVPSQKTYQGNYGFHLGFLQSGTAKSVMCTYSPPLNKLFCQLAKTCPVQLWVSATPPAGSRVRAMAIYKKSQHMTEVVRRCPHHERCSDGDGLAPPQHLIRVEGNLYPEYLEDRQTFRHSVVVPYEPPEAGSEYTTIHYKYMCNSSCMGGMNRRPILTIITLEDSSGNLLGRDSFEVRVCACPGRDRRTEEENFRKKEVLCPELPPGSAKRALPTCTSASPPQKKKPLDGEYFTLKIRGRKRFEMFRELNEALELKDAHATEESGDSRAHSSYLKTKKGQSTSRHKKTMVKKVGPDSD
Experimental: All experiments and animal husbandry were performed with approval from the University of California, San Francisco and University of Maryland Institutional Animal Care and Use Committees. Wild-type (p53^+/+), p53-null (p53^−/−), and p53^−/+ heterozygoytes were maintained on a C57Bl/6 background. […] For pharmacological modulation of p53 in vivo, quinacrine or vehicle (sterile water) was administered intraperitoneally at 10 mg/kg/day, beginning 5 days prior to surgery, and continued daily post-operatively until the experimental endpoint; PFT-α or vehicle (10% DMSO) was administered intraperitoneally at 2 mg/kg/day every other day beginning two days prior to surgery and continued until the experimental end-point. Mesenteric artery ligation was performed on 8- to 12-week old male wild-type and p53^−/− mice as described previously with modifications. A laparotomy was performed and the small intestine exposed and suffused with warmed saline. […] The control artery (CTL) was considered a straight artery three arteries from the site of ligation. […]
Independent experiments with separate animal cohorts for capillary and larger artery analysis were performed. […] Vascular regions were quantified individually and normalized to the contralateral control muscle. […] Two 5 μm sections in two separate areas 0.5 mm apart were measured and the results averaged. […]

HIF-1α = test: Immunoblot of HIF-1α protein in ischemic tissue after hindlimb ischemia; format: in vivo, mouse
Experimental: (§1) All experiments and animal husbandry were performed with approval from the University of California, San Francisco and University of Maryland Institutional Animal Care and Use Committees. Wild-type (p53^+/+), p53-null (p53^−/−), and p53^−/+ heterozygoytes were maintained on a C57Bl/6 background. […]
(§2) TA tissue from ischemic and control limbs from were harvested and pulverized in liquid nitrogen. For whole cell lysates, pulverized tissue was incubated in a modified RIPA buffer (50 mM Tris-HCl, pH 7.4; 1% SDS; 1% NP-40; 0.25% sodium deoxycholate; 1 mM PMSF; 1 mM DTT; Complete Mini, EDTA-free protease inhibitor cocktail and PhosStop phosphatase inhibitor tablets (Roche Applied Science; Indianapolis, Ind.), strained, and sonicated 3 times for 10 seconds. Samples were centrifuged at 10,000 G for ten minutes at 4 C, and the supernatant preserved. Protein concentration was measured using a BCA Protein Assay Kit. A total of 20 μg of protein was resolved on a 4-12% Bis-Tris gradiant polyacrylamide gel (Invitrogen; Carlsbad, Calif.) under reduced conditions and transferred to a PVDF membrane (Amersham Biosciences; Pittsburgh, Pa.). […]

p53 [5] = target: T1, p53; test: Diabetic ischemia model of hindlimb ischemia; format: in vivo; parameters: relieving ischemia in a clinically relevant diabetic ischemia model of hindlimb ischemia; from tissue; host or cells: animal model of diabetic hindlimb ischemia (not described further); details: clinically relevant diabetic ischemia model of hindlimb ischemia
p53 [6] = target: T1, p53; test: Capillary density in ischemic tibialis anterior muscle after hindlimb ischemia; format: in vivo; parameters: from tissue; host or cells: live C57Bl/6 p53+/+ mice (hindlimb muscle and arteries); details: p53+/+ mice, vs vehicle
p53 [7] = test: Blood flow restoration after hindlimb ischemia by LDPI, p53-/- mice (specificity control); format: in vivo, mouse; details: 2 weeks after hindlimb ischemia
Experimental: (§3) All experiments and animal husbandry were performed with approval from the University of California, San Francisco and University of Maryland Institutional Animal Care and Use Committees. Wild-type (p53^+/+), p53-null (p53^−/−), and p53^−/+ heterozygoytes were maintained on a C57Bl/6 background. […] For pharmacological modulation of p53 in vivo, quinacrine or vehicle (sterile water) was administered intraperitoneally at 10 mg/kg/day, beginning 5 days prior to surgery, and continued daily post-operatively until the experimental endpoint; PFT-α or vehicle (10% DMSO) was administered intraperitoneally at 2 mg/kg/day every other day beginning two days prior to surgery and continued until the experimental end-point. […]
(§4) Restoration of blood flow after hindlimb ischemia was assessed by laser Doppler perfusion imaging (LDPI) of the hindlimb paws using a PeriScan PIM 3 System (Perimed AB; Stockholm, Sweden) as previously described. Three successive readings were averaged and expressed as an ischemic index (ischemic paw over contralateral paw). For mesenteric artery ligation, blood flow was measured in the HF or CTL artery as volume-flow with a nanoprobe secured around the artery (0.5 mm nanoprobe, Transonic Systems Inc., Ithaca, N.Y.) in anesthetized mice. Flow was averaged over ten minutes and expressed as an arterial index (HF artery over CTL artery).

p53 [8] = target: T1, p53; test: Blood flow restoration after hindlimb ischemia by laser Doppler perfusion imaging (LDPI), p53+/+ mice; format: in vivo; parameters: from tissue; host or cells: live C57Bl/6 p53+/+ mice (hindlimb muscle and arteries); details: 2 weeks after hindlimb ischemia, vs vehicle
Experimental: as §3, §4

VEGF = test: Immunoblot of VEGF protein in ischemic tissue after hindlimb ischemia; format: in vivo, mouse
Experimental: as §1, §2

aortic rings = test: Endothelial outgrowth aortic ring assay under hypoxic conditions; format: cell-based, mouse; details: 20 μM quinacrine, vs vehicle-treated controls
[9] = PFT-α-treated mice, 3 days after surgery
[10] = PFT-α 2 mg/kg/day every other day intraperitoneally
[11] = quinacrine-treated mice, 7 days after hindlimb ischemia
[12] = quinacrine 10 mg/kg/day intraperitoneally

Compound: COc1ccc(C2=N[C@@H](c3ccc(Cl)cc3)[C@@H](c3ccc(Cl)cc3)N2C(=O)N2CCNC(=O)C2)c(OC(C)C)c1 [Nutlin-3]
- proliferation of endothelial cells (endothelial cells [1]): inhibited proliferation
- proliferation of VSMC (VSMC): inhibited proliferation
- pathologic retinal angiogenesis (p53 [2]): inhibit pathologic retinal angiogenesis
- apoptosis in endothelial cells (endothelial cells [3]): induced apoptosis

Compound: Cc1ccc(C(=O)Cn2c3c(sc2=N)CCCC3)cc1 [PFT-α, pifithrin-α]
- collateral vessel formation (gracilis artery index) (p53 [4]; PFT-α 2 mg/kg/day every other day intraperitoneally, 2 weeks after hindlimb ischemia): collateral vessel formation increased
- HIF-1α protein levels (HIF-1α; [9]): increase
- arteriogenesis and relief of ischemia (p53 [5]): highly effective at increasing arteriogenesis and relieving ischemia
- capillary growth (capillary counts) (p53 [6]; [10]): No difference in capillary growth was detected
- blood flow restoration after ischemia in p53-/- mice (LDPI) (p53 [7]; PFT-α): had no effect on blood flow restoration
- blood flow restoration after ischemia (LDPI) (p53 [8]; [10]): enhanced blood flow restoration
- VEGF protein levels (VEGF; [9]): increase

Compound: CCN(CC)CCCC(C)Nc1c2ccc(Cl)cc2nc2ccc(OC)cc12 (stereo not drawn) [quinacrine]
- collateral development (larger vessel growth) (p53 [4]; quinacrine 10 mg/kg/day intraperitoneally, hindlimb ischemia): did impair collateral development
- HIF-1α protein levels (HIF-1α; [11]): suppressed
- endothelial outgrowth from aortic rings (aortic rings): significantly inhibited endothelial outgrowth
- capillary density (p53 [6]; [12]): did not affect capillary density
- blood flow after ischemia in p53-/- mice (LDPI) (p53 [7]; quinacrine): had no effect on blood flow
- blood flow after ischemia (LDPI) (p53 [8]; [12]): significantly attenuated the improvement in blood flow
- VEGF protein levels (VEGF; [11]): suppressed
